{
  "source": "patent US20250212890A1",
  "about": "“COMBINATIONS OF AV3 MUTANT POLYPEPTIDES AND Bt TOXINS FOR PEST CONTROL” (Vestaron Corporation, priority 2022, published 2025)",
  "origin": "cited, not measured here",
  "key": {"[1]": {"system": "crustacean and insect sodium channels", "conditions": "Moran et al., Toxicon 2009"}, "[2]": {"system": "mammalian sodium channels", "conditions": "Moran et al., Toxicon 2009"}},
  "data": [
    {"substance": "Av3", "values": [
      {"measurement": "selectivity for crustacean and insect sodium channels", "setting": "[1]", "result": "high selectivity"},
      {"measurement": "selectivity for mammalian sodium channels", "setting": "[2]", "result": "low selectivity"}
    ]}
  ]
}
